Assay results taken from patent US20260125374A1, “PI3K-ALPHA INHIBITORS AND METHODS OF MAKING AND USING THE SAME” (Relay Therapeutics, Inc., priority 2021, published 2026).
Values after ≈ are worked out from the molar mass of the structure shown.

What was measured:
[1] = Salt screening (XRPD, chiral purity of hits); type: physicochemical; details: for Chiral purity of salt screening solid: slurry
Summary of the method: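 About 50 mg of I-1 Form A is stirred with 1.0 equivalent of counter ion in MeOH, acetone or IPAc at 50 °C for 2 h, then at 25 °C for at least 12 h. The screen covers 23 counter ions/coformers in about 70 experiments, using slurry, slow evaporation or anti-solvent addition. Solids are centrifuged off and analysed by XRPD.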

[2] = Suspension stability at 25° C.; type: physicochemical; details: for Solubility (μg/mL): LOQ: 0.25 μg/mL
Protocol: Suspension stability: Suspension stability of I-1 Form A and the 2 salt candidates was investigated in pure water, 0.5% (w/w) Tween 80 aqueous solution and 0.5% (w/w) MC (400 cP)+2% (w/w) Vitamin E TPGS aqueous solution at 25° C. for 2 h and 24 h. Target concentration was 2 mg/mL.
To confirm whether racemization occurs for the 2 salts in 0.5% (w/w) MC (400 cP)+2% (w/w) Vitamin E TPGS aqueous solution, the suspension stability in this vehicle was repeated at target concentration of 10 mg/mL. […] The hygroscopicity of these salts were further investigated.
Accurate 10 mg of I-1 Form A, 12.83 mg of I-3 Form A, 11.58 mg of I-4 Form A was weighed into a 8 mL glass vial, respectively. 5 mL of suspension vehicle was added, respectively. The salt amount used is equivalent to 10 mg anhydrous free form. These suspensions were stirred at 25° C. with 400 rpm. These suspensions were taken out at 2 hours and 24 hours, then centrifuged at 14,000 rpm for 5 min. The supernatants were analyzed by HPLC and pH meter. Solids obtained (wet cakes) were characterized by XRPD and HPLC to determine the chiral purity.
Accurate […] of I-3 Form A, 46.3 mg of I-4 Form A was weighed into a 8 mL glass vial, respectively. 4 mL of solubility medium was added, respectively. The salt amount used is equivalent to 40 mg anhydrous free form. 4 mL of the aqueous vehicle (0.5% (w/w) MC (400 cP) and 2% (w/w) Vitamin E TPGS in water) was added, respectively. These suspensions were stirred at 25° C. with 400 rpm. These suspensions were taken out at 2 hours and 24 hours, then centrifuged at 14,000 rpm for 5 min. The supernatants were analyzed by HPLC for the solubility and chiral purity and analyzed by pH meter. Solids obtained (wet cakes) were characterized by XRPD and HPLC for chiral purity.

[3] = 1.0 equiv. naphthalene-1,5-disulfonic acid, MeOH
[4] = 1.0 equiv. naphthalene-1,5-disulfonic acid, MeOH/water(9:1, v/v)
[5] = 1.0 equiv. naphthalene-1,5-disulfonic acid, MeOH, dried at 50° C. for 21 h
[6] = crystalline hits of salt screening, listed as I-1 Form A
[7] = 25° C., 2 mg/mL, 0.5%(w/w) MC(400 cP) and 2%(w/w) Vitamin E TPGS in water, 2 h, listed as I-1 Form A
[8] = 25° C., 2 mg/mL, 0.5%(w/w) MC(400 cP) and 2%(w/w) Vitamin E TPGS in water, 24 h, listed as I-1 Form A
[9] = 25° C., 2 mg/mL, 0.5%(w/w) Tween 80 in water, 2 h, listed as I-1 Form A
[10] = 25° C., 2 mg/mL, 0.5%(w/w) Tween 80 in water, 24 h, listed as I-1 Form A
[11] = 25° C., 2 mg/mL, Pure water, 2 h, listed as I-1 Form A
[12] = 25° C., 2 mg/mL, Pure water, 24 h, listed as I-1 Form A

N#Cc1c(-c2cc(NC(=O)c3cc(F)cc(C(F)(F)F)c3)c3c(c2)C(=O)N[C@H]3c2cc(F)ccc2Cl)ccc2ncnn12 [Compound I-1, (R)-N-(3-(2-chloro-5-fluorophenyl)-6-(5-cyano-[1,2,4]triazolo[1,5-a]pyridin-6-yl)-1-oxoisoindolin-4-yl)-3-fluoro-5-(trifluoromethyl)benzamide]
Salt screening result (anti-solvent) ([1]; 1.0 equiv. methanesulfonic acid, IPAc/MTBE): thin suspension | Salt screening result (slurry crystallization) ([1]; 1.0 equiv. methanesulfonic acid, Isopropyl acetate): thin suspension | Salt screening result (slurry crystallization) ([1]; 1.0 equiv. naphthalene-1,5-disulfonic acid, Acetone): thin suspension | Salt screening result (slurry crystallization) ([1]; 1.0 equiv. naphthalene-1,5-disulfonic acid, Isopropyl acetate, 3 days): 3 days: AF; | Salt screening result (slurry crystallization) ([1]; 1.0 equiv. naphthalene-1,5-disulfonic acid, Isopropyl acetate, for another 3 days): 3 days: AF | Salt screening result (slurry crystallization) [1, 3]: + (I-1 Form A ) (Salt hits) | Salt screening result (slurry crystallization) [1, 4]: − (physical mixtures of (Free form, counter ions, or physical mixtures) | Crystallinity of salt screening solid [1, 5]: low crystallinity | Salt screening result (slurry crystallization) ([1]; 1.0 equiv. naphthalene-2-sulfonic acid, Isopropyl acetate): thin suspension | Salt screening result (slurry crystallization) ([1]; 1.0 equiv. nicotinamide, Acetone): thin suspension | Salt screening result (anti-solvent) ([1]; 1.0 equiv. nicotinamide, Acetone/MTBE): −(I-1 Form B) (Free form, counter ions, or physical mixtures) | Salt screening result (slurry crystallization) ([1]; 1.0 equiv. nicotinamide, Isopropyl acetate): − (physical mixtures (Free form, counter ions, or physical mixtures) | Salt screening result (slurry crystallization) ([1]; 1.0 equiv. nicotinamide, MeOH): − (I-1 Form A (Free form, counter ions, or physical mixtures) | Salt screening result (slurry crystallization) ([1]; 1.0 equiv. nicotinic acid, Acetone): − (physical mixtures (Free form, counter ions, or physical mixtures) | Salt screening result (slurry crystallization) ([1]; 1.0 equiv. nicotinic acid, Isopropyl acetate): − (physical mixtures (Free form, counter ions, or physical mixtures) | Salt screening result (slurry crystallization) ([1]; 1.0 equiv. nicotinic acid, MeOH): − (physical mixtures (Free form, counter ions, or physical mixtures) | Salt screening result (slurry crystallization) ([1]; 1.0 equiv. phosphoric acid, Acetone): thin suspension | Salt screening result (anti-solvent) ([1]; 1.0 equiv. phosphoric acid, Acetone/MTBE): −(I-1 Form B) (Free form, counter ions, or physical mixtures) | Salt screening result (slurry crystallization) ([1]; 1.0 equiv. phosphoric acid, Isopropyl acetate): − (I-1 Form A) (Free form, counter ions, or physical mixtures) | Salt screening result (slurry crystallization) ([1]; 1.0 equiv. phosphoric acid, MeOH): − (I-1 Form A) (Free form, counter ions, or physical mixtures) | Salt screening result (slurry crystallization) ([1]; 1.0 equiv. sodium hydroxide, Acetone): thin suspension | Salt screening result (slurry crystallization) ([1]; 1.0 equiv. sodium hydroxide, Isopropyl acetate, for another 3 days): another 3 days: AF | Salt screening result (slurry crystallization) ([1]; 1.0 equiv. sodium hydroxide, MeOH): clear solution | Salt screening result (slurry crystallization) ([1]; 1.0 equiv. sulfuric acid, Acetone): thin suspension | Salt screening result (anti-solvent) ([1]; 1.0 equiv. sulfuric acid, Acetone/MTBE): thin suspension | Salt screening result (slurry crystallization) ([1]; 1.0 equiv. sulfuric acid, Isopropyl acetate): thin suspension | Salt screening result (slurry crystallization) ([1]; 1.0 equiv. sulfuric acid, MeOH): − (I-1 Form A) (Free form, counter ions, or physical mixtures) | Salt screening result (slurry crystallization) ([1]; 1.0 equiv. theobromine, Acetone): − (physical mixtures (Free form, counter ions, or physical mixtures) | Salt screening result (slurry crystallization) ([1]; 1.0 equiv. theobromine, Isopropyl acetate): − (physical mixtures (Free form, counter ions, or physical mixtures) | Salt screening result (slurry crystallization) ([1]; 1.0 equiv. theobromine, MeOH): − (physical mixtures (Free form, counter ions, or physical mixtures) | Salt screening result (slurry crystallization) ([1]; 1.0 equiv. theophylline, Acetone): − (physical mixtures (Free form, counter ions, or physical mixtures) | Salt screening result (slurry crystallization) ([1]; 1.0 equiv. theophylline, Isopropyl acetate): − (physical mixtures (Free form, counter ions, or physical mixtures) | Salt screening result (slurry crystallization) ([1]; 1.0 equiv. theophylline, MeOH): − (physical mixtures (Free form, counter ions, or physical mixtures) | Salt screening result (slurry crystallization) ([1]; Free form, Acetone): − (I-1 Form A) (Free form, counter ions, or physical mixtures) | Salt screening result (slurry crystallization) ([1]; Free form, Isopropyl acetate): − (I-1 Form A) (Free form, counter ions, or physical mixtures) | Salt screening result (slurry crystallization) ([1]; Free form, MeOH): − (I-1 Form A) (Free form, counter ions, or physical mixtures) | Chiral purity (by HPLC) [1, 6]: 99.2% | Crystallinity (By XRPD) [1, 6]: High | Chiral purity of salt screening solid [1, 3]: Chiral purity: 100% | Chiral purity of salt screening solid [1, 4]: Chiral purity: 99.3% | Chiral purity of salt screening solid [1, 5]: Chiral purity: 100% | physical stability in suspension (XRPD) ([2]; 3 vehicles, 25° C., 2 mg/mL): physically stable | racemization in suspension ([2]; 3 vehicles, 25° C., 2 mg/mL): no racemization | Chiral purity (solids) ([2]; 25° C., 2 mg/mL, 0.5%(w/w) MC(400 cP) and 2%(w/w) Vitamin E TPGS in water, 2 h): 98.7% | Chiral purity [2, 7]: 64.8% | Purity [2, 7]: 99.5% | Solubility [2, 7]: 47.9 µg/mL (≈ 78.7 µM) | pH [2, 7]: 5.02 | Chiral purity (solids) ([2]; 25° C., 2 mg/mL, 0.5%(w/w) MC(400 cP) and 2%(w/w) Vitamin E TPGS in water, 24 h): 96.6% | Chiral purity [2, 8]: 97.7% | Purity [2, 8]: 99.1% | Solubility [2, 8]: 34.5 µg/mL (≈ 56.7 µM) | pH [2, 8]: 4.30 | Chiral purity [2, 9]: 83.2% | Chiral purity (solids) [2, 9]: 98.8% | Purity [2, 9]: 99.1% | Solubility [2, 9]: 25.5 µg/mL (≈ 41.9 µM) | pH [2, 9]: 6.52 | Chiral purity [2, 10]: 93.0% | Chiral purity (solids) [2, 10]: 97.6% | Purity [2, 10]: 99.2% | Solubility [2, 10]: 17.6 µg/mL (≈ 28.9 µM) | pH [2, 10]: 7.40 | Solubility (μg/mL) ([2]; 25° C., 2 mg/mL, Pure water, 2 h): <LOQ | Chiral purity (solids) [2, 11]: 98.8% | Purity [2, 11]: 99.1% | pH [2, 11]: 6.79 | Solubility (μg/mL) ([2]; 25° C., 2 mg/mL, Pure water, 24 h): <LOQ | Chiral purity (solids) [2, 12]: 96.7% | Purity [2, 12]: 99.2% | pH [2, 12]: 8.27 | Initial chiral purity ([2]; before suspension, listed as I-1 Form A): Initial chiral purity: 98.9% | chemical stability in suspension ([2]; water, 0.5% Tween 80, 0.5% MC (400 cP)+2% Vitamin E TPGS, 25° C., 2 h and 24 h, 2 mg/mL): chemically stable
